Legend:
[1] = test system: SUDHL-6 DLBCL xenograft tumors; assay: SUDHL-6 (DLBCL) xenograft model; format: in vivo, female SCID mice; settings: Compound 1 10 mg/kg oral, 5 days on 2 days off for 3 weeks, single agent
Protocol: Female 6- to 8-weeks-old CB17 SCID mice were obtained from Charles River Laboratories. Mice were housed in a barrier facility in micro-isolator cages at 10 animals per cage. Mice were fed with Harlan-Teklad LM-485 Mouse/Rat Sterilizable Diet and autoclaved water ad libitum and maintained on a 12 hours light-dark cycle. Animals were acclimatized to the animal housing facility for a period of 7 days before the beginning of the experiment. All animal studies were performed under protocols approved by Institutional Animal Care and Use Committees.
Suspensions of Compound 1 were pared in aqueous 0.5% Methyl Cellulose, 0.25% Tween 80 and 50 mM Citrate pH 3. […]
Tumor cells were injected subcutaneously in the flank region above the right hind legs of female CB17 SCID mice. […] Tumor volumes were determined before the initiation of treatment and were considered as the starting volumes. Tumors were measured twice a week for the duration of the study. The long and short axes of each tumor were measured using a digital caliper in millimeters. The tumor volumes were calculated using the formula: width^2×length/2. […]
Xenograft data are expressed as mean±SEM. […]
Xenograft study was conducted with female SCID mice bearing SUDHL-6 DLBCL xenograft tumors. […] Tumors were measured twice a week using calipers and tumor volumes were calculated using the formula of W^2×L/2. […]

[2] = test system: OCI-LY10-Luc CNS DLBCL xenograft; assay: OCI-LY10-Luc CNS lymphoma xenograft model (intracranial); format: in vivo, Nude (nu/nu) mice; settings: for % BLI Inhibition on Day 26 / Median Survival: 3 weeks; for % BLI Inhibition on Day 26: relative to vehicle control; for Median Survival: vehicle 35 days
Protocol: Antitumor activity of Compound 1 was evaluated as a single agent in OCI-LY10-luc diffuse large B-cell lymphoma (DLBCL) xenografted intracranially into nude mice as a model for central nervous system (CNS) lymphoma.
CNS lymphoma study was conducted with OCI-LY-10 cells transfected with luciferase (OCI-LY-10-Luc). Nude (nu/nu) mice were inoculated intracranially into the right cerebral hemisphere of the brain with OCI-LY10-Luc cells. Following inoculation of animals, the tumors were allowed to grow for 5 days. On day 5 following tumor cell inoculation, the mice were imaged using IVIS100 imaging system. The mice having tumors with an average flux ranging between 1×10^7 and 2×10^7 photons/sec were pooled together and randomized into various treatment groups. Compound 1 was formulated in 0.5% Methyl Cellulose, 0.25% Tween 80 and 50 mM Citrate pH 3 (MCT) in water. The animals were orally administered vehicle (MCT) or Compound 1 once daily (QD) for 3 weeks. Doses of Compound 1 ranged between 3 and 30 mg/kg. The positive control pomalidomide (30 mg/kg, QD) formulated in aqueous 0.5% CMC and 0.25% Tween-80 was administered PO. The animals were imaged for bioluminescence once a week using IVIS100 imaging system and monitored for survival. Statistical analysis was performed using a log-rank test between Compound 1-treated and vehicle-treated control groups.

With `O=C1CC[C@H](N2C(=O)c3cccc(NCc4ccc(CN5CC(N6CCOCC6)C5)cc4F)c3C2=O)C(=O)N1` [Compound 1, (S)-2-(2,6-dioxopiperidin-3-yl)-4-((2-fluoro-4-((3-morpholinoazetidin-1-yl)methyl)benzyl)amino)isoindoline-1,3-dione] the tumor volume reduction [1] was 68%, the “% BLI Inhibition on Day 26” value ([2]; 3 mg/kg QD oral) was 97.2% and the “Median Survival” value ([2]; 3 mg/kg QD oral) was 61 days. The “% BLI Inhibition on Day 26” value ([2]; 10 mg/kg QD oral) was 99.1%, the “Median Survival” value ([2]; 10 mg/kg QD oral) was 69 days and the “animals survived with no detectable bioluminescence signal” value ([2]; 10 mg/kg, day 120 (2/9)) was 22.2%. The “% BLI Inhibition on Day 26” value ([2]; 30 mg/kg QD oral) was 99.5%, the “Median Survival” value ([2]; 30 mg/kg QD oral) was 97 days and the “animals survived with no detectable bioluminescence signal” value ([2]; 30 mg/kg, day 120 (3/9)) was 33.3%.
